pIC50: −log10 of the molar value. Entries after “also recorded” stand apart in the source; their conditions may differ.
Each compound was assayed on 293T-HRE-GFP-luc cells (assay: Cell-based reporter assay for IC50 determinations). Conditions: hypoxia 6 hrs (1% O2), luminescence, read-out: IC50 Classification.
Summary of the method: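 IC50 comes from a four-parameter logistic fit of luminescence from HRE-GFP-luc 293T cells. Compounds (1:3 series, 1:50 medium dilution) were preincubated 30 min under normoxia, followed by 6 h at 1% O2, 5% CO2, 37 °C, before Steadylite luciferase detection.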
Cc1nc(-c2nc(-c3ccc(OC(F)(F)F)cc3)no2)nn1Cc1ccnc(N2CCN(C)CC2)c1 [Example 2, 5-(5-Methyl-1-((2-(4-methylpiperazin-1-yl)pyridin-4-yl)methyl)-1H-1,2,4-triazol-3-yl)-3-(4-(trifluoromethoxy)phenyl)-1,2,4-oxadiazole] was tested, and the pIC50 was > 7.00. With Cc1nc(-c2nc(-c3ccc(OC(F)(F)F)cc3)no2)nn1Cc1cccc(S(=O)(=O)NCC(N)=O)c1 [Example 139, 2-{3-[(5-methyl-3-{3-[4-(trifluoromethoxy)phenyl]-1,2,4-oxadiazol-5-yl}-1H-1,2,4-triazol-1-yl)methyl]benzenesulfonamido}acetamide] the pIC50 was 6.00 to 7.00. Work on COCCCn1cc(Cn2nc(-c3nc(-c4ccc(OC(F)(F)F)cc4)no3)nc2C)ccc1=O [Example 140, 1-(3-methoxypropyl)-5-[(5-methyl-3-{3-[4-(trifluoromethoxy)phenyl]-1,2,4-oxadiazol-5-yl}-1H-1,2,4-triazol-1-yl)methyl]-1,2-dihydropyridin-2-one] yielded a pIC50 of 6.00 to 7.00. For Cc1nc(-c2nc(-c3ccc(OC(F)(F)F)cc3)no2)nn1Cc1ccnc(OCCCO)c1 [Example 141, 3-({4-[(5-methyl-3-{3-[4-(trifluoromethoxy)phenyl]-1,2,4-oxadiazol-5-yl}-1H-1,2,4-triazol-1-yl)methyl]pyridin-2-yl}oxy)propan-1-ol], the pIC50 was > 7.00. Work on COCCCn1ccc(Cn2nc(-c3nc(-c4ccc(OC(F)(F)F)cc4)no3)nc2C)cc1=O [Example 142, 1-(3-methoxypropyl)-4-[(5-methyl-3-{3-[4-(trifluoromethoxy)phenyl]-1,2,4-oxadiazol-5-yl}-1H-1,2,4-triazol-1-yl)methyl]-1,2-dihydropyridin-2-one] yielded a pIC50 of 6.00 to 7.00. Work on Cc1nc(-c2nc(-c3ccc(OC(F)(F)F)cc3)no2)nn1Cc1ccnc(OCCN(C)C)c1 [Example 143, dimethyl[2-({4-[(5-methyl-3-{3-[4-(trifluoromethoxy)phenyl]-1,2,4-oxadiazol-5-yl}-1H-1,2,4-triazol-1-yl)methyl]pyridin-2-yl}oxy)ethyl]amine] yielded a pIC50 of 6.00 to 7.00. For Cc1nc(-c2nc(-c3ccc(OC(F)(F)F)cc3)no2)nn1Cc1cccc(OCCCS(C)(=O)=O)c1 [Example 144, 5-(1-([3-(3-methanesulfonylpropoxy)phenyl]methyl)-5-methyl-1H-1,2,4-triazol-3-yl)-3-[4-(trifluoromethoxy)phenyl]-1,2,4-oxadiazole], the pIC50 was > 7.00. With Cc1nc(-c2nc(-c3ccc(OC(F)(F)F)cc3)no2)nn1Cc1cccc(N2CCNC(=O)C2)c1 [Example 145, 4-{3-[(5-methyl-3-{3-[4-(trifluoromethoxy)phenyl]-1,2,4-oxadiazol-5-yl}-1H-1,2,4-triazol-1-yl)methyl]phenyl]piperazin-2-one] the pIC50 was > 7.00. With Cc1nc(-c2nc(-c3ccc(OC(F)(F)F)cc3)no2)nn1Cc1ccnc(N2CCC(S(C)(=O)=O)CC2)c1 [Example 146, 2-(4-methanesulfonylpiperidin-1-yl)-4-[(5-methyl-3-{3-[4-(trifluoromethoxy)phenyl]-1,2,4-oxadiazol-5-yl}-1H-1,2,4-triazol-1-yl)methyl]pyridine] the pIC50 was > 7.00. With Cc1nc(-c2nc(-c3ccc(OC(F)(F)F)cc3)no2)nn1Cc1cccc(N2CCCS2(=O)=O)c1 [Example 147, 2-(3-((5-methyl-3-(3-(4-(trifluoromethoxy)phenyl)-1,2,4-oxadiazol-5-yl)-1H-1,2,4-triazol-1-yl)methyl)phenyl)isothiazolidine 1,1-dioxide] the pIC50 was > 7.00. With Cc1nc(-c2nc(-c3ccc(OC(F)(F)F)cc3)cs2)nn1Cc1cccc(N2CCN(C)CC2)c1 [Example 148, 1-methyl-4-{3-[(5-methyl-3-{4-[4-(trifluoromethoxy)phenyl]-1,3-thiazol-2-yl}-1H-1,2,4-triazol-1-yl)methyl]phenyl}piperazine] the pIC50 was > 7.00. Cc1ccc(Cn2nc(-c3nc(-c4ccc(OC(F)(F)F)cc4)cs3)nc2C)cc1 [Example 149, 5-methyl-1-[(4-methylphenyl)methyl]-3-{4-[4-(trifluoromethoxy)phenyl]-1,3-thiazol-2-yl}-1H-1,2,4-triazole] was tested, and the pIC50 was > 7.00. Work on COC(=O)c1cccc(Cn2nc(-c3nc(-c4ccc(OC(F)(F)F)cc4)cs3)nc2C)c1 [Example 150, methyl 3-[(5-methyl-3-{4-[4-(trifluoromethoxy)phenyl]-1,3-thiazol-2-yl}-1H-1,2,4-triazol-1-yl)methyl]benzoate] yielded a pIC50 of 6.00 to 7.00. Cc1nc(-c2nc(-c3ccc(OC(F)(F)F)cc3)cs2)nn1Cc1cccc(O)c1 [Example 151, 3-[(5-methyl-3-{4-[4-(trifluoromethoxy)phenyl]-1,3-thiazol-2-yl}-1H-1,2,4-triazol-1-yl)methyl]phenol] showed a pIC50 of 6.00 to 7.00. In the case of Cc1nc(-c2ncc(-c3ccc(OC(F)(F)F)cc3)o2)nn1Cc1cccc(N2CCN(C)CC2)c1 [Example 152, 1-methyl-4-{3-[(5-methyl-3-{5-[4-(trifluoromethoxy)phenyl]-1,3-oxazol-2-yl}-1H-1,2,4-triazol-1-yl)methyl]phenyl}piperazine], the pIC50 was > 7.00. Cc1nc(-c2ncc(-c3ccc(OC(F)(F)F)cc3)o2)nn1Cc1cccc(S(=O)(=O)N2CCOCC2)c1 [Example 153, 4-{3-[(5-methyl-3-{5-[4-(trifluoromethoxy)phenyl]-1,3-oxazol-2-yl}-1H-1,2,4-triazol-1-yl)methyl]benzenesulfonyl}morpholine] was tested, and the pIC50 was 6.00 to 7.00. Cc1ccc(Cn2nc(-c3ncc(-c4ccc(OC(F)(F)F)cc4)o3)nc2C)cc1 [Example 154, 5-methyl-1-[(4-methylphenyl)methyl]-3-{5-[4-(trifluoromethoxy)phenyl]-1,3-oxazol-2-yl}-1H-1,2,4-triazole] showed a pIC50 of 6.00 to 7.00. In the case of COC(=O)c1cccc(Cn2nc(-c3ncc(-c4ccc(OC(F)(F)F)cc4)o3)nc2C)c1 [Example 155, methyl 3-[(5-methyl-3-{5-[4-(trifluoromethoxy)phenyl]-1,3-oxazol-2-yl}-1H-1,2,4-triazol-1-yl)methyl]benzoate], the pIC50 was 6.00 to 7.00. In the case of Cc1nc(-c2ncc(-c3ccc(OC(F)(F)F)cc3)o2)nn1Cc1cccc(O)c1 [Example 156, 3-[(5-methyl-3-{5-[4-(trifluoromethoxy)phenyl]-1,3-oxazol-2-yl}-1H-1,2,4-triazol-1-yl)methyl]phenol], the pIC50 was 5.00 to 6.00. Cc1nc(-c2ncc(-c3ccc(OC(F)(F)F)cc3)o2)nn1Cc1cccc(C(=O)N(C)C)c1 [Example 157, N,N-dimethyl-3-[(5-methyl-3-{5-[4-(trifluoromethoxy)phenyl]-1,3-oxazol-2-yl}-1H-1,2,4-triazol-1-yl)methyl]benzamide] was tested, and the pIC50 was 6.00 to 7.00. With COCCOc1cccc(Cn2nc(-c3ncc(-c4ccc(OC(F)(F)F)cc4)o3)nc2C)c1 [Example 158, l-{[3-(2-methoxyethoxy)phenyl]methyl}-5-methyl-3-{5-[4-(trifluoromethoxy)phenyl]-1,3-oxazol-2-yl}-1H-1,2,4-triazole] the pIC50 was > 7.00. Cc1nc(-c2ncc(-c3ccc(OC(F)(F)F)cc3)o2)nn1Cc1cccc(S(C)(=O)=O)c1 [Example 159, 1-[(3-methanesulfonylphenyl)methyl]-5-methyl-3-{5-[4-(trifluoromethoxy)phenyl]-1,3-oxazol-2-yl}-1H-1,2,4-triazole] gave a pIC50 of 6.00 to 7.00. With Cc1nc(-c2cc(-c3ccc(OC(F)(F)F)cc3)no2)nn1Cc1cccc(N2CCN(C)CC2)c1 [Example 160, 1-methyl-4-{3-[(5-methyl-3-{3-[4-(trifluoromethoxy)phenyl]-1,2-oxazol-5-yl}-1H-1,2,4-triazol-1-yl)methyl]phenyl}piperazine] the pIC50 was > 7.00. For Cc1nc(-c2cc(-c3ccc(OC(F)(F)F)cc3)no2)nn1Cc1ccnc(N2CCN(C)CC2)c1 [Example 161, 1-methyl-4-{4-[(5-methyl-3-{3-[4-(trifluoromethoxy)phenyl]-1,2-oxazol-5-yl}-1H-1,2,4-triazol-1-yl)methyl]pyridin-2-yl}piperazine], the pIC50 was > 7.00. For Cc1nc(-c2cc(-c3ccc(OC(F)(F)F)cc3)on2)nn1Cc1cccc(N2CCN(C)CC2)c1 [Example 162, 1-methyl-4-{3-[(5-methyl-3-{5-[4-(trifluoromethoxy)phenyl]-1,2-oxazol-3-yl}-1H-1,2,4-triazol-1-yl)methyl]phenyl}piperazine], the pIC50 was > 7.00. Cc1nc(-c2cc(-c3ccc(OC(F)(F)F)cc3)on2)nn1Cc1ccnc(N2CCN(C)CC2)c1 [Example 163, 1-methyl-4-{4-[(5-methyl-3-{5-[4-(trifluoromethoxy)phenyl]-1,2-oxazol-3-yl}-1H-1,2,4-triazol-1-yl)methyl]pyridin-2-yl}piperazine] was tested, and the pIC50 was > 7.00.

Each compound was assayed on Gli56 cells (assay: Glioblastoma cellular assay, cell numbers). Conditions: various concentrations.
Format: cell-based
Source text: (§1) NB-1, Gli56, and D423 cell lines are deleted for ENO-1 (GLI56 and D423) or PGD, which renders them with reduced glycolytic capacity (Muller, F. et al., Nature, 2012, 488, 337-42).
In the case of Cc1nc(-c2nc(-c3ccc(OC(F)(F)F)cc3)no2)nn1Cc1ccnc(N2CCN(C)CC2)c1 [Example 2, 5-(5-Methyl-1-((2-(4-methylpiperazin-1-yl)pyridin-4-yl)methyl)-1H-1,2,4-triazol-3-yl)-3-(4-(trifluoromethoxy)phenyl)-1,2,4-oxadiazole], the “cell death in Gli56 cells” value was “readily apparent” and the “number of viable Gli56 cells” value was “significantly reduced”.

What follows are compounds tested on D423 cells (assay: Glioblastoma cellular assay, cell numbers). Conditions: various concentrations.
Format: cell-based
Source text: as §1
In the case of Cc1nc(-c2nc(-c3ccc(OC(F)(F)F)cc3)no2)nn1Cc1ccnc(N2CCN(C)CC2)c1 [Example 2, 5-(5-Methyl-1-((2-(4-methylpiperazin-1-yl)pyridin-4-yl)methyl)-1H-1,2,4-triazol-3-yl)-3-(4-(trifluoromethoxy)phenyl)-1,2,4-oxadiazole], the “number of viable D423 cells” value was “significantly reduced; also recorded: reduced number of viable cells”.

What follows are compounds tested on NB-1 cells (assay: Neuroblastoma cellular assay, cell numbers). Conditions: various concentrations.
Format: cell-based
Source text: as §1
In the case of Cc1nc(-c2nc(-c3ccc(OC(F)(F)F)cc3)no2)nn1Cc1ccnc(N2CCN(C)CC2)c1 [Example 2, 5-(5-Methyl-1-((2-(4-methylpiperazin-1-yl)pyridin-4-yl)methyl)-1H-1,2,4-triazol-3-yl)-3-(4-(trifluoromethoxy)phenyl)-1,2,4-oxadiazole], the “cell death in NB-1 cells” value was “readily apparent” and the “number of viable NB-1 cells” value was “significantly reduced; also recorded: reduced number of viable cells”.

These compounds were tested on H460 xenografts (assay: H460 non-small cell lung cancer xenograft model). Conditions: 150 mg/kg daily oral for 14 days, CD-1 nude mice.
Format: in vivo, mice
Protocol: H460 cells were implanted subcutaneously in CD-1 nude mice and treated with 150 mpk qdx14 PO of the compound of Example 2 delivered by oral gavage for 14 days. Animals were randomized into study groups and the study initiated when the average tumor volume was 400 mm^3. During treatment, tumor volume was measured three times per week to determine tumor growth over the course of the study (FIG. 6). Nine tumor bearing mice were included in each group. On day 15, 3 hours prior to take down, hypoxyprobe (Hypoxyprobe, Inc. cat # HP3) was injected into mice. Tumor sections were stained (dark areas) for the level of hypoxia utilizing an anti-hypoxyprobe antibody and standard IHC methods (FIG. 7). The same tumors were stained for the expression of HIF regulated gene carbonic anhydrase IX (CA9) using standard IHC methods (FIG. 8).
In the case of Cc1nc(-c2nc(-c3ccc(OC(F)(F)F)cc3)no2)nn1Cc1ccnc(N2CCN(C)CC2)c1 [Example 2, 5-(5-Methyl-1-((2-(4-methylpiperazin-1-yl)pyridin-4-yl)methyl)-1H-1,2,4-triazol-3-yl)-3-(4-(trifluoromethoxy)phenyl)-1,2,4-oxadiazole], the “tumor growth of H460 xenografts” value was “inhibited the growth; also recorded: reduces the tumor growth”.

Same assay, conditions: 150 mg/kg daily oral, day 15
For Cc1nc(-c2nc(-c3ccc(OC(F)(F)F)cc3)no2)nn1Cc1ccnc(N2CCN(C)CC2)c1 [Example 2, 5-(5-Methyl-1-((2-(4-methylpiperazin-1-yl)pyridin-4-yl)methyl)-1H-1,2,4-triazol-3-yl)-3-(4-(trifluoromethoxy)phenyl)-1,2,4-oxadiazole], the “level of HIF regulated gene carbonic anhydrase IX (CAIX/CA9) in H460 xenografts (IHC)” value was “elimination of hypoxia and CA9 protein expression; also recorded: reduce the level of CAIX” and the “level of hypoxia in H460 xenografts (hypoxyprobe IHC)” value was “elimination of hypoxia; also recorded: reduce the level of hypoxia”.

Source: patent US10208059B2, “Heterocyclic modulators of HIF activity for treatment of disease” (Board of Regents, University of Texas System, priority 2012, dated 2019)
